Data published in patent US7893085B2, “Aza-benzothiophenyl compounds and methods of use” (Genentech, Inc, priority 2006, dated 2011).

How the values were obtained:
[1] = system: cellular p-ERK in HCT116 or A375 cells; experiment: Phospho-ERK cell-based assay (ELISA); conditions: Homo sapiens; in either one of the cell lines (HCT116, A375); 2 h or 24 h
Protocol: Compounds are tested in a cell-based phospho-ERK ELISA using the following cell lines:
HCT116 human colorectal carcinoma (ATCC)
(§1) A375 human malignant melanoma (ATCC)
Both cell lines are maintained in DMEM/F12 (1:1) media (Gibco) supplemented with 10% FCS at 37° C. in a 5% CO2 humidified incubator.
Cells are seeded in 96-well plates at 2,000 cells/well and after 24 h they are exposed to different concentrations of compounds in 0.83% DMSO. Cells are grown for a further 2 h or 24 h, fixed with formaldehyde (2% final) and permeabilised with methanol. Following blocking with TBST-3% BSA, fixed cells are incubated with primary antibody (anti-phospho ERK from rabbit) over-night at 4° C. Cells are incubated with Propidium Iodide (DNA fluorescent dye) and detection of cellular p-ERK is performed using an anti-rabbit secondary antibody conjugated to the fluorescent Alexa Fluor 488 dye (Molecular probes). The fluorescence is analysed using the Acumen Explorer (lTP Labtech), a laser-scanning microplate cytometer, and the Alexa Fluor 488 signal is normalised to the PI signal (proportional to cell number).
The EC50 is defined as the concentration at which a given compound achieves a signal half way between the baseline and the maximum response. EC50 values are calculated using the XLfit software package (version 2.0.5).

[2] = system: HCT116 human colorectal carcinoma or A375 human malignant melanoma cells; experiment: Cell proliferation assay (CellTiter-Glo); type: cell-based; conditions: in either one of the cell lines (HCT116, A375), 72 h
Protocol: Compounds are tested in a cell proliferation assay using the following cell lines:
HCT116 human colbrectal carcinoma (ATCC)
as §1
Both cell lines are maintained in DMEMIF12 (1:1) media (Gibco) supplemented with 10% FCS at 37° C. in a 5% CO2 humidified incubator.
Cells are seeded in 96-well plates at 2,000 cells/well and after 24 hours they are exposed to different concentrations of compounds in 0.83% DMSO. Cells are grown for a further 72 h, and an equal volume of CellTiter-Glo reagent (Promega) is added to each well. This lyses the cells and generates a luminescent signal proportional to the amount of ATP released (and therefore proportional to the number of cells in the well) that can be detected using a multiwell luminometer.
The EC50 is defined as the concentration at which a given compound achieves 50% inhibition of control. EC50 values are calculated using the XLfit software package (version 2.0.5).

| SMILES | EC50 [1] [µM] | EC50 [2] [µM] |
| --- | --- | --- |
| O=C(NOCCO)c1sc2c(F)cncc2c1Nc1ccc(I)cc1F [Example 11, 7-Fluoro-3-(2-fluoro-4-iodo-phenylamino)-thieno[3,2-c]pyridine-2-carboxylic acid (2-hydroxy-ethoxy)-amide] | < 10 |  |
| O=C(NOCCO)c1sc2ccncc2c1Nc1ccc(I)cc1F [Example 10, 3-(2-Fluoro-4-iodo-phenylamino)-thieno[3,2-c]pyridine-2-carboxylic acid (2-hydroxyethoxy)-amide] | < 10 | < 10 |
| O=C(NOC[C@H](O)CO)c1sc2ccncc2c1Nc1ccc(I)cc1F [Example 5, 3-(2-Fluoro-4-iodo-phenylamino)-thieno[3,2-c]pyridine-2-carboxylic acid ((R)-2,3-dihydroxy-propoxy)-amide] | < 10 | < 10 |
| CSc1ccc(Nc2c(C(=O)NOCCO)sc3ccncc23)c(F)c1 [Example 12, 3-(2-Fluoro-4-methylsulfanyl-phenylamino)-thieno[3,2-c]pyridine-2-carboxylic acid (2-hydroxy-ethoxy)-amide] | < 10 |  |
